PubChem BioAssay AID1259411 (Chemical Carcinogenesis Research Information System (CCRIS), 2018)
Activity calls are given as the source filed them. The rule behind the calls is not given here.

Test system: rodent carcinogenicity bioassays, tumor incidence
Experiment: CCRIS carcinogenicity studies
In short: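 Archive of carcinogenicity, mutagenicity, tumor promotion and tumor inhibition results drawn from journals, NCI reports and other sources, expert-reviewed; covers 1985-2011 and is no longer updated.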

With `Nc1ccc(-c2ccc(N)c(Cl)c2)cc1Cl` the carcinogen call (Species: HAMSTER, Route: ORAL, Tumor Site: Type of Lesion: URINARY BLADDER) was “active; positive”, the carcinogen call (Species: RAT, Route: ORAL, Tumor Site: Type of Lesion: EAR (ZYMBAL GLAND), MAMMARY GLAND, INTEGUMENTARY SYSTEM (SKIN), HEMATOPOIETIC SYSTEM, URINARY BLADDER, Tumor Site: Type of Lesion: EAR (ZYMBAL GLAND), MAMMARY GLAND, INTEGUMENTARY SYSTEM (SKIN), HEMATOPOIETIC SYSTEM, URINARY BLADDER) was “active; positive” and the carcinogen call (Species: RAT, Route: SUBCUTANEOUS, Tumor Site: Type of Lesion: MAMMARY GLAND, INTEGUMENTARY SYSTEM (SKIN)) was “active; positive”.
With `O=C1NS(=O)(=O)c2ccccc21` the carcinogen call (Species: MONKEY, Strain/Sex: AFRICAN GREEN, RHESUS, CYNOMOLGUS, HYBRID/MALE, FEMALE, Route: ORAL, Dose: 0, 25 MG/KG BW IN FOOD 5 D/WK FOR DURATION OF STUDY (STUDY DURATION: 24 YR)) was “inactive; negative”, the carcinogen call (Species: RAT, Strain/Sex: ANALBUMINEMIC/MALE, Route: ORAL, Dose: 0, 5% IN DIET FOR 80 WK (STUDY DURATION: 80 WK)) was “inactive; negative” and the carcinogen call (Species: RAT, Strain/Sex: SPRAGUE-DAWLEY/MALE, Route: ORAL, Dose: 0, 5% IN DIET FOR 80 WK (STUDY DURATION: 80 WK)) was “inactive; negative”.
For `[O-][Cl+]O`, the carcinogen call (Species: RAT, Strain/Sex: F344/FEMALE, Route: ORAL, Dose: 0, 0.03, 0.06% IN DRINKING WATER FOR 85 WK (STUDY DURATION: 85 WK), Dose: 0, 0.03, 0.06% IN DRINKING WATER FOR 85 WK (STUDY DURATION: 85 WK)) was “inactive; negative” and the carcinogen call (Species: RAT, Strain/Sex: F344/MALE, Route: ORAL, Dose: 0, 0.03, 0.06% IN DRINKING WATER FOR 85 WK (STUDY DURATION: 85 WK), Dose: 0, 0.03, 0.06% IN DRINKING WATER FOR 85 WK (STUDY DURATION: 85 WK)) was “inactive; negative”.
`ClC(Cl)(Cl)C(Cl)(Cl)Cl` was tested, and the carcinogen call (Species: MOUSE, Strain/Sex: B6C3F1/FEMALE, Route: GAVAGE, Dose: 0, 590, 1179 MG/KG, TWA, Dose: 0, 590, 1179 MG/KG, TWA, Tumor Site: Type of Lesion: LIVER: HEPATOCELLULAR CARCINOMA) was “active; positive”, the carcinogen call (Species: MOUSE, Strain/Sex: B6C3F1/MALE, Route: GAVAGE, Dose: 0, 590, 1179 MG/KG, TWA, Dose: 0, 590, 1179 MG/KG, TWA, Tumor Site: Type of Lesion: LIVER: HEPATOCELLULAR CARCINOMA) was “active; positive” and the carcinogen call (Species: RAT, Strain/Sex: F344/F, Route: GAVAGE, Dose: 0, 80, 160 MG/KG IN CORN OIL 5D/WK FOR 103 WK (STUDY DURATION: 105 WK), Dose: 0, 80, 160 MG/KG IN CORN OIL 5D/WK FOR 103 WK (STUDY DURATION: 105 WK)) was “inactive; negative”. The carcinogen call (Species: RAT, Strain/Sex: F344/M, Route: GAVAGE, Dose: 0, 10, 20 MG/KG IN CORN OIL 5D/WK FOR 103 WK (STUDY DURATION: 105 WK), Dose: 0, 10, 20 MG/KG IN CORN OIL 5D/WK FOR 103 WK (STUDY DURATION: 105 WK), Tumor Site: Type of Lesion: ADRENAL MEDULLA: PHEOCHROMOCYTOMA, ADRENAL MEDULLA: PHEOCHROMOCYTOMA, BENIGN, COMPLEX OR MALIGNANT, KIDNEY: RENAL TUBULE, Tumor Site: Type of Lesion: ADRENAL MEDULLA: PHEOCHROMOCYTOMA, ADRENAL MEDULLA: PHEOCHROMOCYTOMA, BENIGN, COMPLEX OR MALIGNANT, KIDNEY: RENAL TUBULE) was “active; positive”, the carcinogen call (Species: RAT, Strain/Sex: OSBORNE-MENDEL/FEMALE, Route: GAVAGE, Dose: 0, 212, 423 MG/KG, TWA FOR 44 WK, Dose: 0, 212, 423 MG/KG, TWA FOR 44 WK) was “inactive; negative” and the carcinogen call (Species: RAT, Strain/Sex: OSBORNE-MENDEL/MALE, Route: GAVAGE, Dose: 0, 212, 423 MG/KG, TWA FOR 44 WK, Dose: 0, 212, 423 MG/KG, TWA FOR 44 WK) was “inactive; negative”.
`ClC(Cl)(Cl)c1ccccc1` was tested, and the carcinogen call (Species: MOUSE, Strain/Sex: ICR/FEMALE, Route: GAVAGE, Dose: 0, 0.0315, 0.125, 0.5, 2 µL IN STERILIZED SESAME OIL 2/WK FOR 25 WK (STUDY DURATION: 18 MO), Dose: 0, 0.0315, 0.125, 0.5, 2 µL IN STERILIZED SESAME OIL 2/WK FOR 25 WK (STUDY DURATION: 18 MO), Tumor Site: Type of Lesion: FORESTOMACH: SQUAMOUS CELL CARCINOMA, LUNG: ADENOCARCINOMA OR ADENOMA, HEMATOPOIETIC SYSTEM: TUMORS, Tumor Site: Type of Lesion: FORESTOMACH: SQUAMOUS CELL CARCINOMA, LUNG: ADENOCARCINOMA OR ADENOMA, HEMATOPOIETIC SYSTEM: TUMORS) was “active; positive”.
With `CCCN(CC(C)=O)N=O` the carcinogen call (Species: HAMSTER, Strain/Sex: SYRIAN/MALE,FEMALE, Route: SUBCUTANEOUS, Dose: 50-200 MG/KG 1/WK FOR LIFE, Tumor Site: Type of Lesion: RESPIRATORY TRACT, LIVER, KIDNEY, Tumor Site: Type of Lesion: RESPIRATORY TRACT, LIVER, KIDNEY) was “active; positive”, the carcinogen call (Species: MOUSE, Strain/Sex: NMRI/FEMALE, Route: SUBCUTANEOUS, Dose: 0.05, 0.1, 0.2% OF 603 MG/KG IN SALINE 1/WK FOR LIFE, Dose: 0.05, 0.1, 0.2% OF 603 MG/KG IN SALINE 1/WK FOR LIFE, Tumor Site: Type of Lesion: LIVER: HEMANGIOENDOTHELIAL SARCOMA, NASAL CAVITY: PAPILLOMA, ADENOCARCINOMA, NASAL TURBINATES: PAPILLOMA, ADENOCARCINOMA, Tumor Site: Type of Lesion: LIVER: HEMANGIOENDOTHELIAL SARCOMA, NASAL CAVITY: PAPILLOMA, ADENOCARCINOMA, NASAL TURBINATES: PAPILLOMA, ADENOCARCINOMA) was “active; positive” and the carcinogen call (Species: RAT, Strain/Sex: SPRAGUE-DAWLEY/MALE,FEMALE, Route: SUBCUTANEOUS, Dose: 0.12, 0.42, 0.85 MG/KG 1/WK FOR LIFE, Dose: 0.12, 0.42, 0.85 MG/KG 1/WK FOR LIFE, Tumor Site: Type of Lesion: LIVER: HEPATOMA, CARCINOMA) was “active; positive”.
With `CO[C@H]1/C=C/O[C@@]2(C)Oc3c(C)c(O)c4c(O)c(c(C=NN5CCN(C)CC5)c(O)c4c3C2=O)NC(=O)/C(C)=C\C=C\[C@H](C)[C@H](O)[C@@H](C)[C@@H](O)[C@@H](C)[C@H](OC(C)=O)[C@@H]1C` the carcinogen call (Species: MOUSE, Strain/Sex: C3F/FEMALE, Route: ORAL, Dose: 0.01, 0.03 0.06% IN DRINKING WATER WITH 0.05% SODIUM ASCORBATE FOR 60 WK, Tumor Site: Type of Lesion: LIVER: BENIGN TUMOR OR MALIGNANT TUMOR) was “active; positive”.
`CCOP(=S)(OCC)Oc1nc(Cl)c(Cl)cc1Cl` was tested, and the carcinogen call (Species: Mouse, Strain/Sex: CD-1/Female (59/group), Route: Oral, Dose: 0, 5, 50, 250 ppm in diet for 79 wk, Dose: 0, 5, 50, 250 ppm in diet for 79 wk) was “inactive; negative (study details not given in source; purity 99.6%)”, the carcinogen call (Species: Mouse, Strain/Sex: CD-1/Male (59/group), Route: Oral, Dose: 0, 5, 50, 250 ppm in diet for 79 wk, Dose: 0, 5, 50, 250 ppm in diet for 79 wk) was “inactive; negative (study details not given in source; purity 99.6%)” and the carcinogen call (Species: RAT, Strain/Sex: F344/FEMALE, Route: ORAL, Dose: 0, 0.05, 0.1, 1, 10 MG/KG BW/D IN DIET FOR 104 WK (STUDY DURATION: 104 WK), Dose: 0, 0.05, 0.1, 1, 10 MG/KG BW/D IN DIET FOR 104 WK (STUDY DURATION: 104 WK)) was “inactive; negative”. The carcinogen call (Species: RAT, Strain/Sex: F344/MALE, Route: ORAL, Dose: 0, 0.05, 0.1, 1, 10 MG/KG BW/D IN DIET FOR 104 WK (STUDY DURATION: 104 WK), Dose: 0, 0.05, 0.1, 1, 10 MG/KG BW/D IN DIET FOR 104 WK (STUDY DURATION: 104 WK)) was “inactive; negative”.
With `CN(C)CCC(c1ccc(Cl)cc1)c1ccccn1` (stereo unspecified) the carcinogen call (Species: MOUSE, Strain/Sex: B6C3F1/FEMALE, Route: GAVAGE, Dose: 0, 100, 200 MG/KG IN DEIONIZED WATER 5 D/WK FOR 103 WK, Dose: 0, 100, 200 MG/KG IN DEIONIZED WATER 5 D/WK FOR 103 WK) was “inactive; negative”, the carcinogen call (Species: MOUSE, Strain/Sex: B6C3F1/MALE, Route: GAVAGE, Dose: 0, 25, 50 MG/KG IN DEIONIZED WATER 5 D/WK FOR 103 WK, Dose: 0, 25, 50 MG/KG IN DEIONIZED WATER 5 D/WK FOR 103 WK) was “inactive; negative” and the carcinogen call (Species: RAT, Strain/Sex: F344/FEMALE, Route: GAVAGE, Dose: 0, 30, 60 MG/KG IN DEIONIZED WATER 5 D/WK FOR 103 WK, Dose: 0, 30, 60 MG/KG IN DEIONIZED WATER 5 D/WK FOR 103 WK) was “inactive; negative”. For the same molecule, the carcinogen call (Species: RAT, Strain/Sex: F344/FEMALE, Route: ORAL, Dose: 0, 1000 PPM IN DIET FOR 106 WK (STUDY DURATION: 130 WK)) was “inactive; negative”, the carcinogen call (Species: RAT, Strain/Sex: F344/MALE, Route: GAVAGE, Dose: 0, 15, 30 MG/KG IN DEIONIZED WATER 5 D/WK FOR 103 WK, Dose: 0, 15, 30 MG/KG IN DEIONIZED WATER 5 D/WK FOR 103 WK) was “inactive; negative” and the carcinogen call (Species: RAT, Strain/Sex: F344/MALE, Route: ORAL, Dose: 0, 1000 PPM IN DIET FOR 106 WK (STUDY DURATION: 130 WK)) was “inactive; negative”.
`CC(N)=S` was tested, and the carcinogen call (Species: MOUSE, Strain/Sex: SWISS, Route: ORAL, Dose: 0.03% IN DIET, Tumor Site: Type of Lesion: LIVER: CARCINOMA) was “active; positive” and the carcinogen call (Species: RAT, Strain/Sex: WISTAR/MALE,FEMALE, Route: ORAL, Dose: 0.032% IN DIET, Tumor Site: Type of Lesion: LIVER: BILE DUCT TUMOR, NOS) was “active; positive”.
